Where two headings read alike, the source gives them in different places.
How the values were obtained:
KRAS G12S = KRAS G12S (Homo sapiens, UniProt P01116+P62937, G12S); experiment: Ras-Raf disruption/FRET/MOA assay, KRAS G12S; assay type: biochemical; conditions: disruption of BRAF RBD binding, with Cyclophilin A; read-out: KRAS G12S FRET IC50
Summary of the method: (§1)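 In this biochemical mechanism-of-action format, 12.5 nM GMPPNP-bound KRAS and 50 nM BRAF^RBD are mixed with 25 μM Cyclophilin A and dilution series of compound. After a 3 h incubation, tag-directed FRET antibodies report remaining KRAS:RAF association.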

KRAS WT = KRAS WT (Homo sapiens, UniProt P01116+P62937); experiment: Ras-Raf disruption/FRET/MOA assay, KRAS WT; assay type: biochemical; conditions: disruption of BRAF RBD binding, with Cyclophilin A; read-out: KRAS WT FRET IC50
Summary of the method: as §1

KRAS G13D = KRAS G13D (Homo sapiens, UniProt P01116+P62937, G13D); experiment: Ras-Raf disruption/FRET/MOA assay, KRAS G13D; assay type: biochemical; conditions: disruption of BRAF RBD binding, with Cyclophilin A; read-out: KRAS G13D FRET IC50
Summary of the method: as §1

KRAS G12C = KRAS G12C (Homo sapiens, UniProt P01116+P62937, G12C); experiment: Ras-Raf disruption/FRET/MOA assay, KRAS G12C; assay type: biochemical; conditions: disruption of BRAF RBD binding, with Cyclophilin A; read-out: KRAS G12C FRET IC50
Summary of the method: as §1

NCI-H358 (K-Ras G12C) = experiment: CellTiter-Glo cell viability assay, H358; assay type: cell-based; conditions: Homo sapiens, NCI-H358, 120 h, NCI-H358, K-Ras G12C, 5-day treatment; read-out: H358 Cell Viability IC50
Summary of the method: (§2)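 Cells already in plates received compound by direct dispensing. After incubation to day 5, plates sat at room temperature roughly 30 minutes, then ATP-based luminescence was measured and values derived from a four-parameter fit of DMSO-normalized data.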

AsPC-1 (K-Ras G12D) [1] = experiment: CellTiter-Glo cell viability assay, AsPC-1; assay type: cell-based; conditions: Homo sapiens, ASPC1, 120 h, read-out: AsPC-1 Cell Viability IC50
Summary of the method: as §2

KRAS G13C = KRAS G13C (Homo sapiens, UniProt P01116+P62937, G13C); experiment: Ras-Raf disruption/FRET/MOA assay, KRAS G13C; assay type: biochemical; conditions: disruption of BRAF RBD binding, with Cyclophilin A; read-out: KRAS G13C FRET IC50
Summary of the method: as §1

NRAS G12C = target: T1, NRAS G12C (Homo sapiens, UniProt P01111+P62937, G12C); experiment: Ras-Raf disruption/FRET/MOA assay, NRAS G12C; assay type: biochemical; conditions: NRAS G12C; read-out: NRAS G12C FRET data IC50
T1 construct: His6
Summary of the method: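 Disruption of Ras:RAF binding was read as a drop in TR-FRET ratio versus DMSO controls. The buffer was 25 mM HEPES pH 7.3, 0.002% Tween20, 0.1% BSA, 100 mM NaCl and 5 mM MgCl2. Compounds were tested as a 10-point 3-fold dilution series from 30 μM. Detection used 10 nM anti-His Eu-W1024 and 50 nM anti-GST allophycocyanin.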

AsPC-1 (K-Ras G12D) [2] = experiment: Potency assay: pERK in AsPC-1 cells; assay type: cell-based; conditions: Homo sapiens
KRAS G12V = KRAS G12V (Homo sapiens, UniProt P01116+P62937, G12V); experiment: Ras-Raf disruption/FRET/MOA assay, KRAS G12V; assay type: biochemical; conditions: disruption of BRAF RBD binding, with Cyclophilin A; read-out: KRAS G12V FRET IC50
Summary of the method: as §1

KRAS G12D = KRAS G12D (Homo sapiens, UniProt P01116+P62937, G12D); experiment: Ras-Raf disruption/FRET/MOA assay, KRAS G12D; assay type: biochemical; conditions: disruption of BRAF RBD binding, with Cyclophilin A; read-out: KRAS G12D FRET IC50
Summary of the method: as §1

[3] = AsPC-1, K-Ras G12D, 5-day treatment
[4] = ASPC1, AsPC-1 cells, K-Ras G12D, read-out: pERK EC50 (AsPC-1 KRAS G12D)
[5] = ASPC1, read-out: pERK EC50 (AsPC-1 KRAS G12D)

Chain of KRAS G13D (P01116 1-169 isoform P01116-2 G13D limits assumed): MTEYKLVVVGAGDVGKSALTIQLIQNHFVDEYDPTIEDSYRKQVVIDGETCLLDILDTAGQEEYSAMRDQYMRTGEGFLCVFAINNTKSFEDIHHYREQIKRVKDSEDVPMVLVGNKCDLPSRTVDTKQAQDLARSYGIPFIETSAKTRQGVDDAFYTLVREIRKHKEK
Chain of KRAS G13D (P62937 whole entry): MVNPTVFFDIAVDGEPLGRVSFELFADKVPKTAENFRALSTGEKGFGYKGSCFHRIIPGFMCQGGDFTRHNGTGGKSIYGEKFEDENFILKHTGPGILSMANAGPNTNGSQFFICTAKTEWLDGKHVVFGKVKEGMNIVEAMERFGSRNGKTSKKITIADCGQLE
Chain of KRAS G12D (P01116 1-169 isoform P01116-2 G12D limits assumed): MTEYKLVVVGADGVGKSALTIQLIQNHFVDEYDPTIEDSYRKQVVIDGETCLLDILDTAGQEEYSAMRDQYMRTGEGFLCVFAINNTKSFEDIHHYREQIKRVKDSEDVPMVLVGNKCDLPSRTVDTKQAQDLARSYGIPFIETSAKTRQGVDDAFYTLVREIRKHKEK
Chain of KRAS G12D (P62937 whole entry): as the sequence (P62937 whole entry) above
Chain of KRAS G13C (P01116 1-169 isoform P01116-2 G13C limits assumed): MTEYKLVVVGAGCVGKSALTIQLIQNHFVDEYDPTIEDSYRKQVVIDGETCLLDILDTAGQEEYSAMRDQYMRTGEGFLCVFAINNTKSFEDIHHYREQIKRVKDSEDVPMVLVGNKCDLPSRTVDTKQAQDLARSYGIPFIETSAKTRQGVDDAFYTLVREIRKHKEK
Chain of KRAS G13C (P62937 whole entry): as the sequence (P62937 whole entry) above
T1 sequence (P01111 whole entry G12C): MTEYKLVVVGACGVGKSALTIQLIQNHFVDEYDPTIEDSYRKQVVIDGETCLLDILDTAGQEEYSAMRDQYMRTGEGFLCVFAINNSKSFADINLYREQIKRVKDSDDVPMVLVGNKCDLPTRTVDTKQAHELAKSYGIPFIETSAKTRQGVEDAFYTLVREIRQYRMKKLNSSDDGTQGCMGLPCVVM
T1 sequence (P62937 whole entry): as the sequence (P62937 whole entry) above
Chain of KRAS G12C (P01116 1-169 isoform P01116-2 G12C limits assumed): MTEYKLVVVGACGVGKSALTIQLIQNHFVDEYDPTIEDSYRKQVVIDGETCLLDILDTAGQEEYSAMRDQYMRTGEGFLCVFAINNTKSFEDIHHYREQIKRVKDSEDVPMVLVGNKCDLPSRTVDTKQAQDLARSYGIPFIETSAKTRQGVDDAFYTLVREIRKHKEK
Chain of KRAS G12C (P62937 whole entry): as the sequence (P62937 whole entry) above
Chain of KRAS WT (P01116 1-169 isoform P01116-2 limits assumed): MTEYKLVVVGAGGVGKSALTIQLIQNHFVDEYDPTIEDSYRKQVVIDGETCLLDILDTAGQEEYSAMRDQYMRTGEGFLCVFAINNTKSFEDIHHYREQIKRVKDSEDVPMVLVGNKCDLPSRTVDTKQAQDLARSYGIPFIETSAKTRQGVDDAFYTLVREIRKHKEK
Chain of KRAS WT (P62937 whole entry): as the sequence (P62937 whole entry) above
Chain of KRAS G12V (P01116 1-169 isoform P01116-2 G12V limits assumed): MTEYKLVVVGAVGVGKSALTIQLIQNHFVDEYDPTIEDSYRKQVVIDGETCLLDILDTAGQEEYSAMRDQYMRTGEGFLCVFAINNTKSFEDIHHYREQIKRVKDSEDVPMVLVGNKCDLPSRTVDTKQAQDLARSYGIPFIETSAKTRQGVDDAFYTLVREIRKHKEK
Chain of KRAS G12V (P62937 whole entry): as the sequence (P62937 whole entry) above
Chain of KRAS G12S (P01116 1-169 isoform P01116-2 G12S limits assumed): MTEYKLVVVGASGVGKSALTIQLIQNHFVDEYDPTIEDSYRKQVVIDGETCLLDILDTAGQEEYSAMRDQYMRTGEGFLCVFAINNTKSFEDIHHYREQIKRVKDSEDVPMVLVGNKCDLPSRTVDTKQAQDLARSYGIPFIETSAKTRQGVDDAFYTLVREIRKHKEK
Chain of KRAS G12S (P62937 whole entry): as the sequence (P62937 whole entry) above

SMILES | IC50 (KRAS G12S) | IC50 (KRAS WT) | IC50 (KRAS G13D) | IC50 (KRAS G12C) | IC50 (NCI-H358 (K-Ras G12C)) | IC50 (AsPC-1 (K-Ras G12D) [1]; [3]) | IC50 (KRAS G13C) | IC50 (NRAS G12C) | EC50 (AsPC-1 (K-Ras G12D) [2]; [4]) | IC50 (KRAS G12V) | IC50 (KRAS G12D) | IC50 (AsPC-1 (K-Ras G12D) [1]) | EC50 (AsPC-1 (K-Ras G12D) [2]; [5])
CCn1c(-c2cccnc2[C@H](C)OC)c2c3cc(ccc31)-c1cc(O)cc(c1)C[C@H](NC(=O)[C@H](C(C)C)N1CC[C@@]3(CCCN(C(=O)[C@@H]4CN4)C3)C1=O)C(=O)N1CCC[C@H](N1)C(=O)OCC(C)(C)C2 [Compound 191] | 10 to 100 nM | 10 to 100 nM | 100 to 1000 nM | 10 to 100 nM | 10 to 100 nM | 1 to 10 µM | 10 to 100 nM | 10 to 100 nM | < 5 µM | 100 to 1000 nM | 100 to 1000 nM |  | 
CCn1c(-c2cnccc2COC)c2c3cc(ccc31)-c1cc(O)cc(c1)C[C@H](NC(=O)[C@H](C(C)C)N(C)C(=O)CN(C)C(=O)[C@H]1CN1C(C)=O)C(=O)N1CCC[C@H](N1)C(=O)OCC(C)(C)C2 [Example 34, (2R)-1-acetyl-N-(2-(((2S)-1-(((6^3S,4S)-1^1-ethyl-2^5-hydroxy-1^2-(4-(methoxymethyl)pyridin-3-yl)-10,10-dimethyl-5,7-dioxo-6^1,6^2,6^3,6^4,6^5,6^6-hexahydro-1^1H-8-oxa-1(5,3)-indola-6(1,3)-pyridazina-2(1,3)-benzenacycloundecaphane-4-yl)amino)-3-methyl-1-oxobutan-2-yl)(methyl)amino)-2-oxoethyl)-N-methylaziridine-2-carboxamide] | 10 to 100 nM | 100 to 1000 nM | 100 to 1000 nM | 10 to 100 nM |  |  | 10 to 100 nM | 10 to 100 nM |  | 100 to 1000 nM | 100 to 1000 nM | 1 to 10 µM | < 5 µM
CCn1c(-c2cnccc2COC)c2c3cc(ccc31)-c1cc(O)cc(c1)C[C@H](NC(=O)[C@H](C(C)C)N(C)C(=O)CN(C)C(=O)[C@@H]1[C@H](C3CC3)N1[S@@+]([O-])C(C)(C)C)C(=O)N1CCC[C@H](N1)C(=O)OCC(C)(C)C2 (some centres unmarked) [Compound 101] | 100 to 1000 nM | 100 to 1000 nM | 100 to 1000 nM | 10 to 100 nM |  |  | 100 to 1000 nM | 10 to 100 nM |  | 100 to 1000 nM | 100 to 1000 nM | 1 to 10 µM | < 5 µM
CCn1c(-c2cnccc2COC)c2c3cc(ccc31)-c1cc(O)cc(c1)C[C@H](NC(=O)[C@H](C(C)C)N(C)C(=O)CN(C)C(=O)[C@@H]1CN1C(C)=O)C(=O)N1CCC[C@H](N1)C(=O)OCC(C)(C)C2 [Compound 35] | 10 to 100 nM | 10 to 100 nM | 100 to 1000 nM | 10 to 100 nM |  |  | 10 to 100 nM | 10 to 100 nM |  | 100 to 1000 nM | 100 to 1000 nM | 1 to 10 µM | < 5 µM
CCn1c(-c2cnccc2COC)c2c3cc(ccc31)-c1cc(O)cc(c1)C[C@H](NC(=O)[C@H](C(C)C)N(C)C(=O)CN(C)C(=O)[C@@H]1[C@H](C)N1[S@@+]([O-])C(C)(C)C)C(=O)N1CCC[C@H](N1)C(=O)OCC(C)(C)C2 (some centres unmarked) [Compound 54] | 10 to 100 nM | 10 to 100 nM | 100 to 1000 nM | 10 to 100 nM |  |  | 10 to 100 nM | 10 to 100 nM |  | 100 to 1000 nM | 100 to 1000 nM | 1 to 10 µM | < 5 µM
CCn1c(-c2cccnc2[C@H](C)OC)c2c3cc(ccc31)-c1cc(O)cc(c1)C[C@H](NC(=O)[C@H](C(C)C)N1CC[C@]3(CCN(C[C@@H]4CN4)C3)C1=O)C(=O)N1CCC[C@H](N1)C(=O)OCC(C)(C)C2 [Compound 176] | 10 to 100 nM | 10 to 100 nM | 10 to 100 nM | 10 to 100 nM |  | 1 to 10 µM | 10 to 100 nM | 10 to 100 nM | < 5 µM | 100 to 1000 nM | 100 to 1000 nM |  | 
CCn1c(-c2cnccc2COC)c2c3cc(ccc31)-c1cc(O)cc(c1)C[C@H](NC(=O)[C@H](C(C)C)N(C)C(=O)CN(C)C(=O)[C@H]1CN1C(=O)OC)C(=O)N1CCC[C@H](N1)C(=O)OCC(C)(C)C2 [Example 38, methyl (2R)-2-((2-(((2S)-1-(((6^3S,4S)-1^1-ethyl-2^5-hydroxy-1^2-(4-(methoxymethyl)pyridin-3-yl)-10,10-dimethyl-5,7-dioxo-6^1,6^2,6^3,6^4,6^5,6^6-hexahydro-1^1H-8-oxa-1(5,3)-indola-6(1,3)-pyridazina-2(1,3)-benzenacycloundecaphane-4-yl)amino)-3-methyl-1-oxobutan-2-yl)(methyl)amino)-2-oxoethyl)(methyl)carbamoyl)aziridine-1-carboxylate] | 10 to 100 nM | 100 to 1000 nM | 100 to 1000 nM | 10 to 100 nM |  |  | 10 to 100 nM | 10 to 100 nM |  | 100 to 1000 nM | 100 to 1000 nM | 1 to 10 µM | < 5 µM
CCn1c(-c2cnccc2COC)c2c3cc(ccc31)-c1cc(O)cc(c1)C[C@H](NC(=O)[C@H](C(C)C)N(C)C(=O)CN(C)C(=O)[C@H]1[C@@H](C)N1[S@+]([O-])C(C)(C)C)C(=O)N1CCC[C@H](N1)C(=O)OCC(C)(C)C2 (some centres unmarked) [Compound 53] | 10 to 100 nM | 10 to 100 nM | 100 to 1000 nM | 10 to 100 nM |  |  | 10 to 100 nM | 10 to 100 nM |  | 100 to 1000 nM | 100 to 1000 nM | 1 to 10 µM | < 5 µM
CCn1c(-c2cnccc2COC)c2c3cc(ccc31)-c1cc(O)cc(c1)C[C@H](NC(=O)[C@@H](CNC1=NCCO1)C(C)C)C(=O)N1CCC[C@H](N1)C(=O)OCC(C)(C)C2 [Compound 29] | 1000 to 10000 nM | 1000 to 10000 nM | 1000 to 10000 nM | 1000 to 10000 nM | 1000 to 10000 nM | 1 to 10 µM | 1000 to 10000 nM | 1000 to 10000 nM |  | 1000 to 10000 nM | 1000 to 10000 nM |  | 
CCn1c(-c2cccnc2[C@H](C)OC)c2c3cc(ccc31)-c1cc(O)cc(c1)C[C@H](NC(=O)[C@H](C(C)C)N1CC[C@@]3(CCN(C[C@H]4CN4)C3)C1=O)C(=O)N1CCC[C@H](N1)C(=O)OCC(C)(C)C2 (single isomer, unassigned) [Example 139] | 10 to 100 nM | 10 to 100 nM | 10 to 100 nM | < 10 nM |  | 1 to 10 µM | < 10 nM | < 10 nM | < 5 µM | 10 to 100 nM | 10 to 100 nM |  | 
